Measurements from patent US20110039762A1, “TARGETED ANTIMICROBIAL MOIETIES” (C3 JIAN, INC., priority 2009, published 2011).
Entries after “also recorded” stand apart in the source; their conditions may differ.

Tests used:
[1] = system: microorganisms (e.g., bacteria, yeasts, fungi); experiment: Targeting peptide binding to target microorganisms (Table 3); conditions: microorganism(s) the targeting peptide binds, preferably 1x PBS
[2] = system: E. coli; experiment: Kill or inhibit growth/proliferation; morphology, biofilm and growth disruption (Tables 5, 6); assay type: cell-based, Escherichia coli; set-up: key: A: Peptide aggregates; B: Less hyphal formation; Clumps; Diffuse clumps and small polyps; F: Diffuse growth; H: Thin; I: Growth inhibition; Microcolony formation; Rippled; Small polyps; Thick; W: Halo formation on top, microlonies on bottom; also: test concentration or dose not given here
[3] = system: E. faecalis; experiment: as above; assay type: cell-based, Enterococcus faecalis; set-up: key: A: Peptide aggregates; B: Less hyphal formation; Clumps; Diffuse clumps and small polyps; F: Diffuse growth; H: Thin; I: Growth inhibition; Microcolony formation; Rippled; Small polyps; Thick; W: Halo formation on top, microlonies on bottom; also: test concentration or dose not given here
[4] = system: MRSA; experiment: as above; assay type: cell-based, Methicillin-resistant Staphylococcus aureus; set-up: key: A: Peptide aggregates; B: Less hyphal formation; Clumps; Diffuse clumps and small polyps; F: Diffuse growth; H: Thin; I: Growth inhibition; Microcolony formation; Rippled; Small polyps; Thick; W: Halo formation on top, microlonies on bottom; also: test concentration or dose not given here
[5] = system: microorganisms; experiment: Peptides having multiple activities (targeting/binding, antimicrobial, growth or phenotype altering)
From the text: In certain embodiments, peptides described herein can have multiple activities. Thus for example, a peptide can have both binding/targeting activity and antimicrobial activity. Such peptides can be used, e.g., in a chimeric construct, for any or all of these properties. Thus, for example, a peptide designated “B” in Table 8 can be used as a targeting peptide. If it is also designated G or M it can also be used for antimicrobial activity.

[6] = system: S. epidermidis; experiment: Kill or inhibit growth/proliferation; morphology, biofilm and growth disruption (Tables 5, 6); assay type: cell-based, Staphylococcus epidermidis; set-up: key: A: Peptide aggregates; B: Less hyphal formation; Clumps; Diffuse clumps and small polyps; F: Diffuse growth; H: Thin; I: Growth inhibition; Microcolony formation; Rippled; Small polyps; Thick; W: Halo formation on top, microlonies on bottom; also: test concentration or dose not given here
[7] = system: S. pneumoniae; experiment: as above; assay type: cell-based, Streptococcus pneumoniae; set-up: key: A: Peptide aggregates; B: Less hyphal formation; Clumps; Diffuse clumps and small polyps; F: Diffuse growth; H: Thin; I: Growth inhibition; Microcolony formation; Rippled; Small polyps; Thick; W: Halo formation on top, microlonies on bottom; also: test concentration or dose not given here
[8] = peptide binding conducted in aqueous buffers varied by peptide solubility

Row | Substance | Target(s) [1, 8] | Organism, effect [2] | Organism, effect [3] | Organism, effect [4] | Activities [5] | Organism, effect [6] | Organism, effect [7] | Target(s) ([1]; binding in aqueous buffers depending on peptide solubility)
1 | PF-401: peptide having multiple activities (YWLSRVTTGHSFAFEKPVPLSLTIK; Peptide with targeting and/or antimicrobial activity) | S. epidermidis and E. coli and P. aeruginosa and MRSA and E. faecalis and C. jejuni | E. coli (R) | E. faecalis (C) | MRSA (C) | G B | S. epidermidis (C) |  | 
2 | PF-440: peptide having multiple activities (chain 1 MFIISPDLFNIAVILYILFFIHDILLLILS; chain 2 MFIISPDLFNIAVILYILFFIHDILLLILS; Peptide with targeting and/or antimicrobial activity) |  | E. coli (R) | E. faecalis (C) | MRSA (C) | G B | S. epidermidis (C) | S. pneumoniae (R) | 
3 | PF-439: peptide having multiple activities (chain 1 RVLVLKKFHGIMDGNRNVAVFFVGQ; chain 2 RVLVLKKFHGIMDGNRNVAVFFVGQ; Peptide with targeting and/or antimicrobial activity) |  | E. coli (R) | E. faecalis (C) | MRSA (M) | G B | S. epidermidis (C) | S. pneumoniae (R) | 
4 | PF-381: peptide having multiple activities (chain 1 QGANPCQQVGFTVNDPDCRLAKTV; chain 2 QGANPCQQVGFTVNDPDCRLAKTV; Peptide with targeting and/or antimicrobial activity) |  | E. coli (R) | E. faecalis (C) | MRSA (C) | G B | S. epidermidis (C) |  | E. coli; also recorded: P. aeruginosa; also recorded: C. jejuni
5 | KTPNDKIHKTIIIKHIIL [PF-533] |  | E. coli (R) | E. faecalis (C) | MRSA (H) |  | S. epidermidis (H) | S. pneumoniae (C) | 
6 | PF-399: peptide having multiple activities (FPIISALLGAIICIAIYSFIVNRKA; Peptide with targeting and/or antimicrobial activity) |  | E. coli (C) | E. faecalis (C) | MRSA (C) | G B | S. epidermidis (C) |  | 
7 | PF-534 (KYFHLFYHNIIHYSKQHLSLKVDFKN; Peptide with targeting and/or antimicrobial activity) |  | E. coli (R) | E. faecalis (C) | MRSA (C) |  | S. epidermidis (C) | S. pneumoniae (R) | 
8 | PF-410: peptide having multiple activities (FALELIALCRNLFIVYFP; Peptide with targeting and/or antimicrobial activity) |  | E. coli (S) | E. faecalis (C) | MRSA (M) | G B | S. epidermidis (C) |  | 
9 | PF-396: peptide having multiple activities (LIYTILASLGVLTVLQAILGREPKAVKA; Peptide with targeting and/or antimicrobial activity) | S. epidermidis; also recorded: E. coli; also recorded: P. aeruginosa; also recorded: C. albicans; also recorded: E. faecalis; also recorded: C. jeikeium | E. coli (C) | E. faecalis (C) | MRSA (C) | G B | S. epidermidis (S) |  | 
